According to PMC12811997 (Chemmedchem, 2025):
Converted amounts (≈) assume the structure as drawn. Where a name gives a salt, the structure may show the parent alone. Read-outs that look alike come from different tables or passages of the source.

Key:
SARS‐CoV‐2 = assay: microbe, parasite or virus in culture; assay type: cell-based; conditions: Severe acute respiratory syndrome coronavirus 2; Calu‐3 cells infected with SARS‐CoV‐2; concentration required to reduce viral cytopathic effect by 50%; read-out: EC50
in vitro = conditions: human
Protocol: Cytotoxicity was evaluated by incubating the same two‐fold serial dilutions of each compound with Calu‐3 cells as above but without the virus. Following 3 days of incubation at 37 °C in 5% CO2, the cell viability was determined by the addition of XTT solution as above. The compound cytotoxic concentrations resulting in a 50% reduction of absorbance (CC50) were calculated from plots of the percentage of absorbance versus log10 of drug concentration as above.

Kinetic solubility = conditions: for kinetic solubility: as restated in Conclusions
[1] = biological target: SARS‐CoV‐2 RdRp complex (nsp12, nsp7, nsp8) (Severe acute respiratory syndrome coronavirus 2, UniProt P0DTD1); assay: biochemical; assay type: biochemical; conditions: for remaining activity at 10 µM: read-out: RA ± SD (residual activity of RdRp), at 10 μM concentration of screened compounds, AUC with compound / AUC of noninhibited reaction

SMILES	EC50 (SARS‐CoV‐2) [µM]	CC50 at 3 days (in vitro) [µM]	remaining activity at 10 µM [1] [%]	solubility kinetic (Kinetic solubility; kinetic from dmso stock) [µM]	also measured
O=C(Nc1cccc(C(F)(F)F)c1)Nc1ccc(Cl)cc1Cl [Compound 9, 1‐(2,4‐Dichlorophenyl)‐3‐(3‐(Trifluoromethyl)Phenyl)Urea]	> 6.9	6.9 ± 0.94	64 ± 12		solubility kinetic (Kinetic solubility): < 2 µM
O=C(Nc1cccc(C(F)(F)F)c1)Nc1c(Cl)cccc1Cl [Compound 10, 1‐(2,6‐Dichlorophenyl)‐3‐(3‐(Trifluoromethyl)Phenyl)Urea]			100		
O=C(Nc1ccc(C(F)(F)F)cc1)Nc1cc(Cl)cc(Cl)c1 [Compound 13, 1‐(3,5‐Dichlorophenyl)‐3‐(4‐(Trifluoromethyl)Phenyl)Urea]	> 0.29	0.29 ± 0.03	34 ± 14	< 2.1	
O=C(Nc1cc(Cl)cc(Cl)c1)Nc1ccccc1C(F)(F)F [Compound 14, 1‐(3,5‐Dichlorophenyl)‐3‐(2‐(Trifluoromethyl)Phenyl)Urea]			100		
O=C(Nc1ccc(C(F)(F)F)nc1)Nc1cc(Cl)cc(Cl)c1 [Compound 15, 1‐(3,5‐Dichlorophenyl)‐3‐(6‐(Trifluoromethyl)Pyridin‐3‐Yl)Urea]	> 1.3	1.3 ± 0.13	35 ± 9		
O=C(Nc1cc(Cl)cc(Cl)c1)Nc1ccc(C(F)(F)F)cn1 [Compound 16, 1‐(3,5‐Dichlorophenyl)‐3‐(5‐(Trifluoromethyl)Pyridin‐2‐Yl)Urea]			100		
O=C(Nc1cc(Cl)cc(Cl)c1)Nc1ccc(C(F)(F)F)nn1 [Compound 17, 1‐(3,5‐Dichlorophenyl)‐3‐(6‐(Trifluoromethyl)Pyridazin‐3‐Yl)Urea]			68 ± 9		
O=C(Nc1cnc(C(F)(F)F)nc1)Nc1cc(Cl)cc(Cl)c1 [Compound 18, 1‐(3,5‐Dichlorophenyl)‐3‐(2‐(Trifluoromethyl)Pyrimid‐5‐Yl)Urea]	> 1.1	1.1 ± 0.11	42 ± 10	27 ± 6 (≈ 9.48 µg/mL)	kinetic solubility (Kinetic solubility): 27 µM/L; effect in combination with remdesivir [1]: potentiates the effect of remdesivir; mode of inhibition ([1]; versus ATP, enzymatic study): competitive inhibitor of ATP
O=C(Nc1cc(Cl)cc(Cl)c1)Nc1cnc(C(F)(F)F)cn1 [Compound 19, 1‐(3,5‐Dichlorophenyl)‐3‐(5‐(Trifluoromethyl)Pyrazin‐2‐Yl)Urea]			75 ± 8		
NC(=O)c1ccc(NC(=O)Nc2cc(Cl)cc(Cl)c2)cc1C(F)(F)F [Compound 24, 4‐(3‐(3,5‐Dichlorophenyl)Ureido)‐2‐(Trifluoromethyl)Benzamide]	> 14	14 ± 1	~65	32.5 ± 0.8 (≈ 12.7 µg/mL)	kinetic solubility (Kinetic solubility): 32.5 µM L^−1
NC(=O)c1ccc(C(F)(F)F)cc1NC(=O)Nc1cc(Cl)cc(Cl)c1 [Compound 25, 2‐(3‐(3,5‐Dichlorophenyl)Ureido)‐4‐(Trifluoromethyl)Benzamide]			100		
NC(=O)c1c(Cl)cc(Cl)cc1NC(=O)Nc1cccc(C(F)(F)F)c1 [Compound 28, 2,4‐Dichloro‐6‐(3‐(3‐(Trifluoromethyl)Phenyl)Ureido)Benzamide]			100		
Cl.O=C(Nc1cc(Cl)cc(Cl)c1)Nc1ccc(CN2CCCC2)c(C(F)(F)F)c1 [Compound 38, 1‐(3,5‐Dichlorophenyl)‐3‐(4‐(Pyrrolidin‐1‐Ylmethyl)‐3‐(Trifluoromethyl)Phenyl)Urea Hydrochloride]	> 19	19 ± 1	46 ± 2	< 2	
Cl.O=C(Nc1cc(Cl)cc(Cl)c1)Nc1ccc(CN2CCOCC2)c(C(F)(F)F)c1 [Compound 39, 1‐(3,5‐Dichlorophenyl)‐3‐(4‐(Morpholinomethyl)‐3‐(Trifluoromethyl)Phenyl)Urea Hydrochloride]	> 8.4	8.4 ± 1.1	36 ± 7	4.2 ± 0.3	kinetic solubility (Kinetic solubility): 4.2 µM L^−1
CN1CCN(Cc2ccc(NC(=O)Nc3cc(Cl)cc(Cl)c3)cc2C(F)(F)F)CC1.Cl [Compound 40, 1‐(3,5‐Dichlorophenyl)‐3‐(4‐((4‐Methylpiperazin‐1‐Yl)Methyl)‐3‐(Trifluoromethyl)Phenyl)Urea Hydrochloride]	> 13	13 ± 0.8	~65	43.5 ± 0.8	kinetic solubility (Kinetic solubility): 43.5 µM L^−1
NCc1ccc(NC(=O)Nc2cc(Cl)cc(Cl)c2)cc1C(F)(F)F [Compound 41, 1‐(4‐(Aminomethyl)‐3‐(Trifluoromethyl)Phenyl)‐3‐(3,5‐Dichlorophenyl)Urea Hydrochloride]			78 ± 5		
Cl.O=C(Nc1cc(Cl)cc(Cl)c1)Nc1ccc(C(F)(F)F)c(CN2CCCC2)c1 [Compound 46, 1‐(3,5‐Dichlorophenyl)‐3‐(3‐(Pyrrolidin‐1‐Ylmethyl)‐4‐(Trifluoromethyl)Phenyl)Urea Hydrochloride]	> 15	~15	67 ± 7	11.9 ± 0.4	
Cl.O=C(Nc1cc(Cl)cc(Cl)c1)Nc1ccc(C(F)(F)F)c(CN2CCOCC2)c1 [Compound 47, 1‐(3,5‐Dichlorophenyl)‐3‐(3‐(Morpholinomethyl)‐4‐(Trifluoromethyl)Phenyl)Urea Hydrochloride]	> 5.3	5.3 ± 0.48	65 ± 5	< 2	
CN1CCN(Cc2cc(NC(=O)Nc3cc(Cl)cc(Cl)c3)ccc2C(F)(F)F)CC1 [Compound 48, 1‐(3,5‐Dichlorophenyl)‐3‐(3‐((4‐Methylpiperazin‐1‐Yl)Methyl)‐4‐(Trifluoromethyl)Phenyl)Urea Hydrochloride]			100		
CN1CCN(Cc2c(Cl)cc(NC(=O)Nc3cccc(C(F)(F)F)c3)cc2Cl)CC1 [Compound 54, 1‐(3,5‐Dichloro‐4‐((4‐Methylpiperazin‐1‐Yl)Methyl)Phenyl)‐3‐(3‐(Trifluoromethyl)Phenyl)Urea Hydrochloride]			79 ± 5		
COCCNCc1ccc(NC(=O)Nc2cc(Cl)cc(Cl)c2)cc1C(F)(F)F [Compound 58, 1‐(3,5‐Dichlorophenyl)‐3‐(4‐(((2‐Methoxyethyl)Amino)Methyl)‐3‐(Trifluoromethyl)Phenyl)Urea Hydrochloride]			100		
O=C(Nc1cc(Cl)cc(Cl)c1)Nc1ccc(CNCCO)c(C(F)(F)F)c1 [Compound 59, 1‐(3,5‐Dichlorophenyl)‐3‐(4‐(((2‐Hydroxyethyl)Amino)Methyl)‐3‐(Trifluoromethyl)Phenyl)Urea Hydrochloride]			76 ± 11		
COC(=O)CNCc1ccc(NC(=O)Nc2cc(Cl)cc(Cl)c2)cc1C(F)(F)F.Cl [Compound 61, Methyl (4‐(3‐(3,5‐Dichlorophenyl)Ureido)‐2‐(Trifluoromethyl)Benzyl)Glycinate Hydrochloride]	> 8.4	8.4 ± 0.46	43 ± 8	7 ± 0.6	kinetic solubility (Kinetic solubility): 21 µM L^−1; increase in kinetic solubility compared with compound 39 (Kinetic solubility; relative to compound 39): 1.7 fold
O=C(O)CNCc1ccc(NC(=O)Nc2cc(Cl)cc(Cl)c2)cc1C(F)(F)F [Compound 62, Lithium (4‐(3‐(3,5‐Dichlorophenyl)Ureido)‐2‐(Trifluoromethyl)Benzyl)Glycinate]			70 ± 10		
